Consider 77 compounds from PMC12040169 (PLOS Biology, 2025).

The term viability denotes a read-out of living cells in per cent, often relative to untreated cells.

One series in a line: in vitro. The note with it: human, hela cells, % viability.
Turning to `C[C@@H](NC(=O)CCN1C(=O)[C@@H]2Cc3ccccc3CN2C1=O)C(=O)O` [CBK286709], the viability at 28.5 h, 10 µM came out at 93.7%. As to `Cc1ccc2c(CC(=O)N3CCC(C(=O)O)CC3)coc2c1` [CBK286711], the viability at 28.5 h, 10 µM was 79.9%.

Regarding `CC(=O)C1=C(O)C(=O)N(CC(=O)O)C1c1ccc(Br)cc1` (centres unmarked) [CBK286712], the viability at 28.5 h, 10 µM was 89.9%. On to `Cc1cccc(C)c1NC(=O)CC(CN1CCN(Cc2c(C)noc2C)CC1)C(=O)O` (centres unmarked) [CBK286715], for which the viability at 28.5 h, 10 µM amounted to 89.8%.

As for `CCc1c(Cc2[nH]c(C)c(C(C)=O)c2C)[nH]c(C(=O)O)c1C` [CBK286717], the viability at 28.5 h, 10 µM was found to be 91.3%.

Turning to `CCC(C)C(NC(=O)Cc1c[nH]c2ccccc12)C(=O)O` (centres unmarked) [CBK286720], the viability at 28.5 h, 10 µM amounted to 91%.

On to `COc1ccccc1CNC(=O)N[C@@H](CC(C)C)C(=O)O` [CBK286722], for which the viability at 28.5 h, 10 µM was determined as 92.9%.

`COc1ccc(C(CNC(=O)C(=O)Nc2ccc(C(=O)O)cc2)N(C)C)cc1` (centres unmarked) [CBK286724]: the viability at 28.5 h, 10 µM worked out at 119%. For `CCC(C)[C@H](NC(=O)N1CCN(C(=O)c2cc3ccccc3[nH]2)CC1)C(=O)O` (some centres unmarked) [CBK286725], the viability at 28.5 h, 10 µM is 91%. With `O=C(O)c1ccc(CNC2CC(=O)N(c3ccc(F)cc3)C2=O)cc1` (centres unmarked) [CBK286727], the viability at 28.5 h, 10 µM worked out at 95.3%. In the case of `COc1cc(/C=C/C(=O)NCc2ccc(C(=O)O)cc2)ccc1O` [CBK286728], the viability at 28.5 h, 10 µM turned out to be 86.4%. On to `CN1C(=O)NC(c2ccc(Br)cc2)C2=C1CN(c1cccc(C(=O)O)c1)C2=O` (centres unmarked) [CBK286729], for which the viability at 28.5 h, 10 µM was 84.3%. Consider `C[C@H](NC(=O)C1CCN(C(=O)OC(C)(C)C)CC1)C(=O)O` [CBK286730], for which the viability at 28.5 h, 10 µM amounted to 78.9%.

With `O=C(O)C[C@]1(C(=O)NC2CCCCCC2)CC(/C=C/c2ccccc2)=NO1` [CBK286732], the viability at 28.5 h, 10 µM is 75.9%.

In the case of `COc1cccc(NC(=O)CC(CN2CCN(Cc3ccccn3)CC2)C(=O)O)c1` (centres unmarked) [CBK286735], the viability at 28.5 h, 10 µM is 85.1%. `COc1cc2c(cc1OC)C(c1ccc(C(=O)O)cc1)NCC2` (centres unmarked) [CBK286738]: the viability at 28.5 h, 10 µM worked out at 90.2%.

With `O=C(O)C(c1c[nH]c2ccccc12)N1CCOCC1` (centres unmarked) [CBK286739], the viability at 28.5 h, 10 µM stood at 83.8%. As to `CC(C)C[C@H](NC(=O)OC(C)(C)C)C(=O)N1CCC(C(=O)O)CC1` [CBK286742], the viability at 28.5 h, 10 µM turned out to be 80.6%.

On to `CSCC[C@H](NC(=O)Nc1ccc(N2CCC(C)CC2)cc1)C(=O)O` [CBK286743], for which the viability at 28.5 h, 10 µM worked out at 86%. With `CN1CCN(CC(CC(=O)Nc2ccccc2)C(=O)O)CC1` (centres unmarked) [CBK286746], the viability at 28.5 h, 10 µM is 81.8%. With `O=C(O)/C=C/C(=O)N1N=C(c2ccc(F)cc2)CC12C(=O)Nc1ccccc12` (centres unmarked) [CBK286747], the viability at 28.5 h, 10 µM was 88.9%. `Cc1ccc(Oc2ccc(S(=O)(=O)N3CCOCC3)cc2C(=O)O)cc1` [CBK286748]: the viability at 28.5 h, 10 µM amounted to 90.4%. Still for that read-out and setting: with `C[C@H](NC(=O)N1CCN(C(=O)CCCc2c[nH]c3ccccc23)CC1)C(=O)O` [CBK286749] the figure was 88%. With `CC(C)C[C@H](NC(=O)OC(C)(C)C)C(=O)NC[C@H]1CC[C@H](C(=O)O)CC1` [CBK286750], the viability at 28.5 h, 10 µM stood at 85.9%. Consider `COc1cc2oc(=O)c(CC(=O)N3CCCC(C(=O)O)C3)c(C)c2cc1Cl` (centres unmarked) [CBK286754], for which the viability at 28.5 h, 10 µM was 107%. Still for that read-out and setting: then `CC(C)COc1ccc(C(CC(=O)O)C(=O)O)cc1` (centres unmarked) [CBK286759], with 103%; and `CC1(C)SC2c3ccccc3C(=O)N2[C@@H]1C(=O)N1CCC(C(=O)O)CC1` (some centres unmarked) [CBK286760], with 89.4%. Turning to `CC(C)(C)OC(=O)N1Cc2ccccc2C[C@H]1C(=O)N1CCC(C(=O)O)CC1` [CBK286761], the viability at 28.5 h, 10 µM is 94.1%. In the case of `Cc1c(CCC(=O)N2CCCC(C(=O)O)C2)c(=O)oc2c(C)c(O)ccc12` (centres unmarked) [CBK286764], the viability at 28.5 h, 10 µM amounted to 88.5%.

With `O=C(O)[C@@H]1CCCN1C(=O)CCn1nnc2ccccc2c1=O` [CBK286765], the viability at 28.5 h, 10 µM worked out at 83.6%. On to `CCC(CCC(=O)Nc1ccccc1Cl)C(=O)O` (centres unmarked) [CBK286767], for which the viability at 28.5 h, 10 µM amounted to 86.8%. Same read-out and setting: then `CC(=O)NCC12CC3CC(C1)CC(C(=O)O)(C3)C2` [CBK286768], with 93.8%. `COc1ccc(-c2ccc(=O)n(CC(=O)NC(C(=O)O)c3ccccc3)n2)c(F)c1` (centres unmarked) [CBK286769]: the viability at 28.5 h, 10 µM was found to be 97.3%. On to `CC(C)[C@H](NC(=O)c1cc2cc(Cl)ccc2n1C)C(=O)N1CCC(C(=O)O)CC1` [CBK286771], for which the viability at 28.5 h, 10 µM is 107%. Regarding `C[C@H](NC(=O)N1CCN(C(=O)CCc2c[nH]c3ccccc23)CC1)C(=O)O` [CBK286774], the viability at 28.5 h, 10 µM is 97.7%. Regarding `COc1ccc(-c2ccc(=O)n(CC(=O)NCc3ccc(C(=O)O)cc3)n2)c(F)c1` [CBK286776], the viability at 28.5 h, 10 µM was 91.5%.

For `CSCC[C@H](NC(=O)c1cccc2c1-c1ccccc1C2=O)C(=O)O` [CBK286781], the viability at 28.5 h, 10 µM came to 95.5%. Same read-out and setting: with `CN(C(=O)[C@H]1CCCC[C@H]1C(=O)O)C1CCS(=O)(=O)C1` (some centres unmarked) [CBK286782] the figure was 106%; with `CN(C)CCCn1c(=O)n(CC(=O)O)c(=O)c2c3c(sc21)CCC3` [CBK286783], 110%; with `CC(=O)C1=C(O)C(=O)N(CCCC(=O)O)C1c1ccc(Br)cc1` (centres unmarked) [CBK286784], 115%.

Turning to `CC(C)(C)OC(=O)N1CCN(C(=O)N[C@@H](Cc2ccccc2)C(=O)O)CC1` [CBK286785], the viability at 28.5 h, 10 µM stood at 113%. For the compound `O=C(CC(CN1CCCCC1)C(=O)O)Nc1cccc(O)c1` (centres unmarked) [CBK286788], the viability at 28.5 h, 10 µM was determined as 114%. Turning to `O=C(CC(CN1CCN(CCO)CC1)C(=O)O)Nc1ccccc1F` (centres unmarked) [CBK286790], the viability at 28.5 h, 10 µM was 86%.

Turning to `O=C(O)c1ccc(N2CC(C(=O)Nc3ccc(F)cc3)CC2=O)cc1` (centres unmarked) [CBK286794], the viability at 28.5 h, 10 µM is 85.3%. As for `CC1(C)CCCC2=C1CC(C(=O)O)C(C(=O)NCc1cccnc1)C2` (centres unmarked) [CBK286795], the viability at 28.5 h, 10 µM is 83.3%. As for `CCCCC(NS(=O)(=O)Cc1ccccc1)C(=O)O` (centres unmarked) [CBK286798], the viability at 28.5 h, 10 µM was found to be 91.1%. As to `Cc1ccc(CN(C(=O)/C=C/C(=O)O)C(C)(C)C)cc1` [CBK286799], the viability at 28.5 h, 10 µM came out at 91.5%. With `O=C(CC(CN1CCN(Cc2ccccn2)CC1)C(=O)O)Nc1ccc(F)cc1` (centres unmarked) [CBK286800], the viability at 28.5 h, 10 µM was 86.8%. With `COc1cccc(NC(=O)CC(CN2CCN(CCC#N)CC2)C(=O)O)c1` (centres unmarked) [CBK286801], the viability at 28.5 h, 10 µM turned out to be 86.1%.

Consider `CC(=O)N1CCN(c2ccccc2NC(=O)Cc2ccccc2C(=O)O)CC1` [CBK286802], for which the viability at 28.5 h, 10 µM amounted to 87.6%. On the same count and under the same terms, with `Cn1c(=O)c2c(nc(N3CCN(c4cccc(Cl)c4)CC3)n2CC(=O)O)n(C)c1=O` [CBK286803] the figure was 87.7%.

On to `Cc1c(C(=O)O)sc2ncn(CCOc3ccc(Cl)cc3)c(=O)c12` [CBK286808], for which the viability at 28.5 h, 10 µM is 88.5%. As for `O=C(CC(CN1CCN(c2ccccn2)CC1)C(=O)O)NC1CCCCC1` (centres unmarked) [CBK286812], the viability at 28.5 h, 10 µM amounted to 87.7%. In the case of `COc1cccc(N2CCN(CC(CC(=O)Nc3ccccc3)C(=O)O)CC2)c1` (centres unmarked) [CBK286813], the viability at 28.5 h, 10 µM worked out at 89.8%. As for `CC(=O)NC(CSc1cc(C)nc2ccc(F)cc12)C(=O)O` (centres unmarked) [CBK286815], the viability at 28.5 h, 10 µM was 91.7%. Consider `CCOc1ccccc1N1CCN(C(C(=O)O)c2c[nH]c3ccc(CO)cc23)CC1` (centres unmarked) [CBK286816], for which the viability at 28.5 h, 10 µM was 90.1%. With `Cc1cc(C(F)(F)F)nn1CCC(=O)Nc1cnn(C)c1C(=O)O` [CBK286817], the viability at 28.5 h, 10 µM came out at 98.4%. On the same count and under the same terms, with `COc1cccc(OCC(=O)Nc2ccccc2C(=O)O)c1` [CBK286819] the figure was 85.9%. Take `Cc1noc(C)c1CN1CCN(CC(CC(=O)Nc2ccc(F)cc2)C(=O)O)CC1` (centres unmarked) [CBK286821]: the viability at 28.5 h, 10 µM came out at 90.5%. With `C=C(C)CN1CCN(CC(CC(=O)NCc2ccccc2)C(=O)O)CC1` (centres unmarked) [CBK286823], the viability at 28.5 h, 10 µM came out at 98.1%. On to `O=C(O)C(c1c[nH]c2cc(F)ccc12)N1CCN(CC(=O)N2CCOCC2)CC1` (centres unmarked) [CBK286825], for which the viability at 28.5 h, 10 µM worked out at 86.5%.

Turning to `CC(c1ccccc1)C(CC(=O)O)C(=O)NCc1ccccc1` (centres unmarked) [CBK286830], the viability at 28.5 h, 10 µM is 101%. On to `COc1ccc(NC(=O)CC(CN2CCN(c3ccc(Cl)cc3)CC2)C(=O)O)cc1` (centres unmarked) [CBK286831], for which the viability at 28.5 h, 10 µM was 101%. Take `Cc1n[nH]c2nc(-c3cc(Br)ccc3O)cc(C(=O)O)c12` [CBK286834]: the viability at 28.5 h, 10 µM was 105%.

In the case of `O=C(O)CN1CCN(c2ncnc3sc4c(c23)CCCC4)CC1` [CBK286836], the viability at 28.5 h, 10 µM worked out at 99.5%.

Consider `Cc1nn(Cc2c(F)cccc2Cl)c(C)c1NC(=O)CCCC(=O)O` [CBK286838], for which the viability at 28.5 h, 10 µM turned out to be 108%. Take `CC(CC(=O)O)CC(=O)N1CCN(c2ccccn2)CC1` (centres unmarked) [CBK286839]: the viability at 28.5 h, 10 µM was 107%.

For the compound `O=C(O)[C@@H]1CCN(Cc2ccccc2)C[C@H]1c1ccccc1` [CBK286840], the viability at 28.5 h, 10 µM stood at 102%. As for `Cc1cc(=O)c(O)c(CN2CCC(C(=O)O)CC2)o1` [CBK286843], the viability at 28.5 h, 10 µM stood at 87.6%.

Regarding `O=C(CC(CN1CCN(CC(=O)N2CCCC2)CC1)C(=O)O)Nc1ccccc1` (centres unmarked) [CBK286844], the viability at 28.5 h, 10 µM worked out at 87.9%.

Consider `O=C(O)C(c1c[nH]c2cc(CO)ccc12)N1CCCN(c2ccc(C(F)(F)F)cn2)CC1` (centres unmarked) [CBK286845], for which the viability at 28.5 h, 10 µM was determined as 85.3%.

For the compound `COc1ccc2[nH]cc(C(C(=O)O)N3CCN(Cc4ccccn4)CC3)c2c1` (centres unmarked) [CBK286846], the viability at 28.5 h, 10 µM amounted to 80.5%. Regarding `COc1ccc(C2C(C(=O)O)c3ccccc3C(=O)N2C)cc1` (centres unmarked) [CBK286847], the viability at 28.5 h, 10 µM was 85.8%. Consider `O=C(O)CC1CCN(c2ccc(C(F)(F)F)cn2)CC1` [CBK286850], for which the viability at 28.5 h, 10 µM was determined as 90.4%. Turning to `O=C(O)CCC(=O)N1CCN(Cc2ccc(Cl)cc2)CC1` [CBK286852], the viability at 28.5 h, 10 µM is 90%. On the same count and under the same terms, with `O=C(CC(CN1CCN(Cc2cccnc2)CC1)C(=O)O)Nc1ccc(Cl)cc1` (centres unmarked) [CBK286853] the figure was 91.5%.

The same series, now with this note: human, hela cells, % viability, bulk resorufin, single well.
Take `O=C(O)C1C2CCC(O2)C1C(=O)NC1CCCCC1` (centres unmarked) [CBK286848]: the viability at 28.5 h, 10 µM was found to be 85%.
